Reference: patent publication EP4806445A1, “USE OF COMPOSITION FOR PREVENTING, ALLEVIATING OR TREATING DIABETIC KIDNEY DISEASE COMPRISING ZINC SALT AND CYCLO-HISPRO AS ACTIVE INGREDIENTS” (Novmetapharma Co., Ltd., priority 2023, dated 2025)

What was measured:
Format in all cases: in vivo
KKAy mice [1] = experiment: Measurement of urine albumin (albuminuria) in diabetic kidney disease model; details: week 16 of administration; for albuminuria: 24-hour urine, losartan 20 mg/kg in drinking water, dapagliflozin 2 mg/kg, CycloZ 15 mg/kg oral daily, negative control 51.4; for decrease in albuminuria compared to the negative control group: same doses as E1
Description: Five-week-old KKay mice were purchased from Clea, Japan, and as a normal control group, five-week-old C57BL6/J mice were purchased from Daehan Bio Link Co., Ltd. Breeding was performed under constant conditions (temperature: 22±2 °C, relative humidity: 55±10%, circadian cycle: 12 hours), and Purina mouse diet was used as feed and distilled water was used as drinking water. Mice were used in the experiment after a one-week adaptation period following purchase. Lorsartan used in the examples below was purchased from […], and dapagliflozin was purchased from Betapahrma. Metabolic cages were prepared using products from Jeongdo B&P Co., Ltd. Isoflurane, which is necessary for anesthesia and dissection of mice, was purchased from Hana Pharm Co., Ltd., and the RC2 Rodent Circuit Controller Anesthesia System from Vetequip was prepared. Phosphate buffered saline (PBS) was purchased from Hyclone. The KKAy animal model is known to have 10-50 times higher proteinuria (albuminuria) than the db/db animal model, and is reported to show the most severe mesangial matrix expansion among all models. […] The normal control group and the negative control group were orally administered the same amount of distilled water daily. [Table 1] At week 16 of administration, 24-hour urine was collected using a metabolic cage and centrifuged at 2,000 rpm for 10 minutes to remove suspended solids. Albumin was measured with a DCA vantage analyzer (Siemens) and DCA® Microalbumin/Creatinine Urine Test cartridge (Siemens) using urine diluted 1/10 with distilled water.

KKAy mice [2] = experiment: ACR, drug administration from severe condition, CycloZ, losartan and/or sitagliptin (Example 4); details: week 9
Description: (§1) At week 11 of administration, 24-hour urine was collected using a metabolic cage and centrifuged at 1,000 rpm for 5 minutes to remove suspended solids. Albumin was measured with a DCA vantage analyzer (Siemens) and DCA® Microalbumin/Creatinine Urine Test cartridge (Siemens) using urine diluted 1/2 with distilled water. Creatinine was measured using undiluted urine and a mouse creatinine assay kit (Crystalchem). The measured albumin (mg/dL) value was divided by the creatinine (g/dL) value to derive the ACR (mg/g) value.
(§2) After breeding five-week-old KKAy mice of Example 1-1 for 6 weeks, urine was collected for 24 hours and ACR was measured using the same method as in Example 3-2. The groups were randomly divided as shown in Table 5 so that the average ACR values were the same, and then the drug was orally administered daily for 9 weeks from the age of 12 weeks as shown in Table 5. At this time, losartan was dissolved in drinking water to allow a daily intake of 20 mg/kg per subject, and the remaining drugs were orally administered daily.
At week 9 of administration, 24-hour urine was collected using a metabolic cage, and ACR was measured using the same method as in Example 3-2.

KKAy mice [3] = experiment: ACR, drug administration from mild condition (Example 3-1/3-2); details: administration from mild stage, week 11
Description: Five-week-old KKAy mice of Example 1-1 were pre-bred for one week and then divided into groups as shown in Table 1 so that the average body weights were the same. The control group was orally administered distilled water for 11 weeks, while Group 1 was orally administered 15 mg/kg of CycloZ, Group 2 was orally administered 10 mg/kg of sitagliptin, and Group 3 was orally administered 10 mg/kg of sitagliptin + 15 mg/kg of CycloZ daily for the same period.
as §1

KKAy mice [4] = experiment: ACR, drug administration from severe condition, CycloZ and/or sitagliptin (Example 3-3/3-4); details: week 11
Description: as §1
as §2, with “4” for “5”, “11” for “9”, “4.” for “5. At this time, losartan was dissolved in drinking water to allow a daily intake of 20 mg/kg per subject, and the remaining drugs were orally administered daily.”
At week 11 of administration, 24-hour urine was collected using a metabolic cage, and ACR was measured using the same method as in Example 3-2.

KKAy mice [5] = experiment: ACR, drug administration from severe condition, CycloZ and/or metformin (Example 5); details: week 12
Description: as §1
as §2, with “6” for “5”, “12” for “9”, “6.” for “5. At this time, losartan was dissolved in drinking water to allow a daily intake of 20 mg/kg per subject, and the remaining drugs were orally administered daily.”
At week 12 of administration, 24-hour urine was collected using a metabolic cage, and ACR was measured using the same method as in Example 3-2.

[6] = administration from severe stage

CCCCc1nc(Cl)c(CO)n1Cc1ccc(-c2ccccc2-c2nn[nH]n2)cc1 [Losartan, losartan]
albuminuria (KKAy mice [1]): 39.3 mg/dL
decrease in albuminuria compared to the negative control group (KKAy mice [1]): 23.5%
ACR (KKAy mice [2]; administration from severe stage (age 12 weeks), CycloZ 15 mg/kg, losartan 20 mg/kg in drinking water, sitagliptin 10 mg/kg, negative control 7,118): 7,158 mg/g
effect on alleviating ACR (result in words) (KKAy mice [2]; [6]): did not show a significant effect on alleviating ACR

N[C@@H](CC(=O)N1CCn2c(nnc2C(F)(F)F)C1)Cc1cc(F)c(F)cc1F [Sitagliptin, sitagliptin]
ACR reduced compared to the control group (KKAy mice [3]): ~24%
ACR (KKAy mice [3]; CycloZ 15 mg/kg, sitagliptin 10 mg/kg oral daily, negative control 6,379): 4,852 mg/g
ACR (KKAy mice [4]; administration from severe stage (age 12 weeks), CycloZ 15 mg/kg, sitagliptin 10 mg/kg oral daily, negative control 4,450): 2,301 mg/g
ACR decrease compared to the negative control group (KKAy mice [4]; [6]): 48%

CCOc1ccc(Cc2cc([C@@H]3O[C@H](CO)[C@@H](O)[C@H](O)[C@H]3O)ccc2Cl)cc1 [Dapagliflozin, dapagliflozin]
albuminuria (KKAy mice [1]): 31.1 mg/dL
decrease in albuminuria compared to the negative control group (KKAy mice [1]): 39.5%

CN(C)C(=N)N=C(N)N [Metformin, metformin]
ACR (KKAy mice [5]; administration from severe stage (age 12 weeks), CycloZ 15 mg/kg, metformin 200 mg/kg oral daily, negative control 2,369): 2,952 mg/g
effect on alleviating ACR (result in words) (KKAy mice [5]; [6]): did not show a significant effect on alleviating ACR
